According to patent US20150175877A1, “ENVIRONMENTALLY ACCEPTABLE MULTIFUNCTIONAL ADDITIVE” (SCHLUMBERGER TECHNOLOGY CORPORATION, priority 2013, published 2015):

System: bacteria in North Sea location water
Assay: Bacteria growth study in water using dipslides
Type: cell-based
Conditions: 35° C., dipslide; for Bacteria count: two replicated tests
Procedure: Bacteria Growth Study at 35° C. [95° F.]
Following is the qualitative study of bacteria growth in water using dipslides. A dipslide is used to test the presence of microorganisms in liquids. Dipslides are the fastest and easiest way to measure the microbial activity in liquid-based systems and in this testing it is used to evaluate the performance of Bodoxin AE.

For `OCOCCOCO` [Bodoxin AE, (ethylenedioxy)dimethanol], the “Bacteria count in location water when biocide is used (in words)” value (compared with tap or distilled water) was “reduced significantly reaching the same level as tap or distilled water”, the Bacteria count (biocide conc. 0.50 gpt) was <10^3 (CFU/ml) and the Bacteria count (biocide conc. 1.00 gpt) was <10^3 (CFU/ml). For the same molecule, the Bacteria count (biocide conc. 1.50 gpt) was <10^3 (CFU/ml).
